± gives the expanded uncertainty stated by the source.
Assay: xn = mol fraction of the nth substance listed
Details: 101 kPa, Liquid

CCCCn1cc[n+](C)c1.N#C[S-] [1-butyl-3-methylimidazolium thiocyanate] + CCCO
mass density (298.15 K, x1 = 0.0267): 819.06 ± 1.2 kg/m3
viscosity (298.15 K, x1 = 0.0267): 2.26 ± 0.1 mPa·s
mass density (298.15 K, x1 = 0.0833): 854.16 ± 1.1 kg/m3
viscosity (298.15 K, x1 = 0.0833): 2.87 ± 0.13 mPa·s
mass density (298.15 K, x1 = 0.1849): 903.16 ± 0.88 kg/m3
viscosity (298.15 K, x1 = 0.1849): 4.27 ± 0.19 mPa·s
mass density (298.15 K, x1 = 0.2538): 930.41 ± 0.78 kg/m3
viscosity (298.15 K, x1 = 0.2538): 5.34 ± 0.24 mPa·s
mass density (298.15 K, x1 = 0.3429): 959.02 ± 0.69 kg/m3
viscosity (298.15 K, x1 = 0.3429): 7.42 ± 0.31 mPa·s
mass density (298.15 K, x1 = 0.4577): 988.94 ± 0.64 kg/m3
viscosity (298.15 K, x1 = 0.4577): 10.9 ± 0.4 mPa·s
mass density (298.15 K, x1 = 0.5868): 1015.47 ± 0.77 kg/m3
viscosity (298.15 K, x1 = 0.5868): 16.7 ± 0.6 mPa·s
mass density (298.15 K, x1 = 0.6791): 1030.55 ± 0.94 kg/m3
viscosity (298.15 K, x1 = 0.6791): 20.5 ± 0.8 mPa·s
mass density (298.15 K, x1 = 0.805): 1048.14 ± 1.2 kg/m3
viscosity (298.15 K, x1 = 0.805): 25.8 ± 1 mPa·s
mass density (298.15 K, x1 = 0.9342): 1062.97 ± 1.5 kg/m3
viscosity (298.15 K, x1 = 0.9342): 38.6 ± 1.5 mPa·s
mass density (298.15 K, x1 = 1): 1069.79 ± 1.6 kg/m3
viscosity (298.15 K, x1 = 1): 51.7 ± 1.2 mPa·s
mass density (308.15 K, x1 = 0.0267): 811.18 ± 1.3 kg/m3
viscosity (308.15 K, x1 = 0.0267): 1.8 ± 0.08 mPa·s
mass density (308.15 K, x1 = 0.0833): 846.63 ± 1.1 kg/m3
viscosity (308.15 K, x1 = 0.0833): 2.3 ± 0.11 mPa·s
mass density (308.15 K, x1 = 0.1849): 895.99 ± 0.91 kg/m3
viscosity (308.15 K, x1 = 0.1849): 3.39 ± 0.15 mPa·s
mass density (308.15 K, x1 = 0.2538): 923.49 ± 0.81 kg/m3
viscosity (308.15 K, x1 = 0.2538): 4.21 ± 0.19 mPa·s
mass density (308.15 K, x1 = 0.3429): 952.34 ± 0.72 kg/m3
viscosity (308.15 K, x1 = 0.3429): 5.71 ± 0.25 mPa·s
mass density (308.15 K, x1 = 0.4577): 982.5 ± 0.66 kg/m3
viscosity (308.15 K, x1 = 0.4577): 8.22 ± 0.34 mPa·s
mass density (308.15 K, x1 = 0.5868): 1009.21 ± 0.74 kg/m3
viscosity (308.15 K, x1 = 0.5868): 12.3 ± 0.5 mPa·s
mass density (308.15 K, x1 = 0.6791): 1024.39 ± 0.91 kg/m3
viscosity (308.15 K, x1 = 0.6791): 14.8 ± 0.6 mPa·s
mass density (308.15 K, x1 = 0.805): 1042.09 ± 1.2 kg/m3
viscosity (308.15 K, x1 = 0.805): 18.1 ± 0.7 mPa·s
mass density (308.15 K, x1 = 0.9342): 1057.02 ± 1.4 kg/m3
viscosity (308.15 K, x1 = 0.9342): 26.2 ± 1 mPa·s
mass density (308.15 K, x1 = 1): 1063.89 ± 1.6 kg/m3
viscosity (308.15 K, x1 = 1): 34.9 ± 1.3 mPa·s
mass density (318.15 K, x1 = 0.0267): 803.18 ± 1.3 kg/m3
viscosity (318.15 K, x1 = 0.0267): 1.46 ± 0.07 mPa·s
mass density (318.15 K, x1 = 0.0833): 839 ± 1.1 kg/m3
viscosity (318.15 K, x1 = 0.0833): 1.87 ± 0.09 mPa·s
mass density (318.15 K, x1 = 0.1849): 888.81 ± 0.94 kg/m3
viscosity (318.15 K, x1 = 0.1849): 2.75 ± 0.13 mPa·s
mass density (318.15 K, x1 = 0.2538): 916.58 ± 0.84 kg/m3
viscosity (318.15 K, x1 = 0.2538): 3.4 ± 0.15 mPa·s
mass density (318.15 K, x1 = 0.3429): 945.66 ± 0.75 kg/m3
viscosity (318.15 K, x1 = 0.3429): 4.49 ± 0.2 mPa·s
mass density (318.15 K, x1 = 0.4577): 976.07 ± 0.69 kg/m3
viscosity (318.15 K, x1 = 0.4577): 6.43 ± 0.27 mPa·s
mass density (318.15 K, x1 = 0.5868): 1003.01 ± 0.71 kg/m3
viscosity (318.15 K, x1 = 0.5868): 9.37 ± 0.38 mPa·s
mass density (318.15 K, x1 = 0.6791): 1018.27 ± 0.88 kg/m3
viscosity (318.15 K, x1 = 0.6791): 11.2 ± 0.5 mPa·s
mass density (318.15 K, x1 = 0.805): 1036.08 ± 1.1 kg/m3
viscosity (318.15 K, x1 = 0.805): 13.4 ± 0.5 mPa·s
mass density (318.15 K, x1 = 0.9342): 1051.09 ± 1.4 kg/m3
viscosity (318.15 K, x1 = 0.9342): 18.7 ± 0.7 mPa·s
mass density (318.15 K, x1 = 1): 1058.02 ± 1.6 kg/m3
viscosity (318.15 K, x1 = 1): 24.2 ± 0.9 mPa·s
mass density (328.15 K, x1 = 0.0267): 795 ± 1.3 kg/m3
viscosity (328.15 K, x1 = 0.0267): 1.2 ± 0.06 mPa·s
mass density (328.15 K, x1 = 0.0833): 831.26 ± 1.2 kg/m3
viscosity (328.15 K, x1 = 0.0833): 1.55 ± 0.07 mPa·s
mass density (328.15 K, x1 = 0.1849): 881.57 ± 0.98 kg/m3
viscosity (328.15 K, x1 = 0.1849): 2.27 ± 0.11 mPa·s
mass density (328.15 K, x1 = 0.2538): 909.63 ± 0.87 kg/m3
viscosity (328.15 K, x1 = 0.2538): 2.8 ± 0.1 mPa·s
mass density (328.15 K, x1 = 0.3429): 939 ± 0.78 kg/m3
viscosity (328.15 K, x1 = 0.3429): 3.6 ± 0.2 mPa·s
mass density (328.15 K, x1 = 0.4577): 969.67 ± 0.72 kg/m3
viscosity (328.15 K, x1 = 0.4577): 5.1 ± 0.2 mPa·s
mass density (328.15 K, x1 = 0.5868): 996.84 ± 0.7 kg/m3
viscosity (328.15 K, x1 = 0.5868): 7.3 ± 0.3 mPa·s
mass density (328.15 K, x1 = 0.6791): 1012.18 ± 0.84 kg/m3
viscosity (328.15 K, x1 = 0.6791): 8.7 ± 0.4 mPa·s
mass density (328.15 K, x1 = 0.805): 1030.11 ± 1.1 kg/m3
viscosity (328.15 K, x1 = 0.805): 10.4 ± 0.4 mPa·s
mass density (328.15 K, x1 = 0.9342): 1045.22 ± 1.4 kg/m3
viscosity (328.15 K, x1 = 0.9342): 14 ± 0.6 mPa·s
mass density (328.15 K, x1 = 1): 1052.19 ± 1.5 kg/m3
viscosity (328.15 K, x1 = 1): 16.7 ± 0.7 mPa·s
mass density (338.15 K, x1 = 0.0267): 786.6 ± 1.4 kg/m3
viscosity (338.15 K, x1 = 0.0267): 1 ± 0.05 mPa·s
mass density (338.15 K, x1 = 0.0833): 823.39 ± 1.2 kg/m3
viscosity (338.15 K, x1 = 0.0833): 1.3 ± 0.06 mPa·s
mass density (338.15 K, x1 = 0.1849): 874.27 ± 1 kg/m3
viscosity (338.15 K, x1 = 0.1849): 1.9 ± 0.09 mPa·s
mass density (338.15 K, x1 = 0.2538): 902.7 ± 0.9 kg/m3
viscosity (338.15 K, x1 = 0.2538): 2.35 ± 0.11 mPa·s
mass density (338.15 K, x1 = 0.3429): 932.34 ± 0.81 kg/m3
viscosity (338.15 K, x1 = 0.3429): 3.01 ± 0.14 mPa·s
mass density (338.15 K, x1 = 0.4577): 963.3 ± 0.75 kg/m3
viscosity (338.15 K, x1 = 0.4577): 4.18 ± 0.19 mPa·s
mass density (338.15 K, x1 = 0.5868): 990.7 ± 0.73 kg/m3
viscosity (338.15 K, x1 = 0.5868): 5.89 ± 0.26 mPa·s
mass density (338.15 K, x1 = 0.6791): 1006.14 ± 0.81 kg/m3
viscosity (338.15 K, x1 = 0.6791): 6.97 ± 0.3 mPa·s
mass density (338.15 K, x1 = 0.805): 1024.2 ± 1.1 kg/m3
viscosity (338.15 K, x1 = 0.805): 8.19 ± 0.34 mPa·s
mass density (338.15 K, x1 = 0.9342): 1039.4 ± 1.3 kg/m3
viscosity (338.15 K, x1 = 0.9342): 10.9 ± 0.4 mPa·s
mass density (338.15 K, x1 = 1): 1046.43 ± 1.5 kg/m3
viscosity (338.15 K, x1 = 1): 12.7 ± 0.5 mPa·s
mass density (348.15 K, x1 = 0.0267): 777.98 ± 1.4 kg/m3
viscosity (348.15 K, x1 = 0.0267): 0.848 ± 0.043 mPa·s
mass density (348.15 K, x1 = 0.0833): 815.39 ± 1.3 kg/m3
viscosity (348.15 K, x1 = 0.0833): 1.1 ± 0.05 mPa·s
mass density (348.15 K, x1 = 0.1849): 866.94 ± 1 kg/m3
viscosity (348.15 K, x1 = 0.1849): 1.62 ± 0.08 mPa·s
mass density (348.15 K, x1 = 0.2538): 895.73 ± 0.94 kg/m3
viscosity (348.15 K, x1 = 0.2538): 2 ± 0.09 mPa·s
mass density (348.15 K, x1 = 0.3429): 925.71 ± 0.84 kg/m3
viscosity (348.15 K, x1 = 0.3429): 2.56 ± 0.12 mPa·s
mass density (348.15 K, x1 = 0.4577): 956.97 ± 0.77 kg/m3
viscosity (348.15 K, x1 = 0.4577): 3.46 ± 0.16 mPa·s
mass density (348.15 K, x1 = 0.5868): 984.6 ± 0.75 kg/m3
viscosity (348.15 K, x1 = 0.5868): 4.81 ± 0.22 mPa·s
mass density (348.15 K, x1 = 0.6791): 1000.13 ± 0.78 kg/m3
viscosity (348.15 K, x1 = 0.6791): 5.64 ± 0.25 mPa·s
mass density (348.15 K, x1 = 0.805): 1018.32 ± 1 kg/m3
viscosity (348.15 K, x1 = 0.805): 6.62 ± 0.28 mPa·s
mass density (348.15 K, x1 = 0.9342): 1033.61 ± 1.3 kg/m3
viscosity (348.15 K, x1 = 0.9342): 8.69 ± 0.36 mPa·s
mass density (348.15 K, x1 = 1): 1040.7 ± 1.4 kg/m3
viscosity (348.15 K, x1 = 1): 9.98 ± 0.41 mPa·s

From the NIST ThermoML archive (doi:10.1021/je8008254)
